Laboratory results reported in patent US8357811B2, “Crystalline forms of docetaxel and process for preparation thereof” (ScnioPharm Singapore PTE Ltd., priority 2006, dated 2013).

Assay: Stability of crystalline anhydrous docetaxel and docetaxel trihydrate in solvents (FIG. 2)
Format: physicochemical
Settings: for stability in co-water solvent: co-water solvent (ACN/water/acetic acid) vs non-water solvent
Excerpt: FIG. 2 illustrates the stability of crystalline anhydrous docetaxel and docetaxel trihydrate.

Row | stability compared with trihydrated form (1883-12-11, 1883-12-21, 2016-109-05) (in acetonitrile, FIG. 2) | stability compared with trihydrated form (see FIG. 2, solvent not stated at this place) | stability in co-water solvent | SMILES | stability in acetonitrile compared with acetonitrile/water (9/1) (acetonitrile vs acetonitrile/water (9/1)) | growth of 7-epi-docetaxel on addition of acetic acid (addition of acetic acid) | stability in co-water solvent (listed as Docetaxel) | generation of impurity 7-epi-docetaxel (co-water solvent vs non-water solvent)
1 | more stable | more stable than trihydrated form | – | CC(=O)O[C@@]12CO[C@@H]1C[C@H](O)[C@@]1(C)C(=O)[C@H](O)C3=C(C)[C@@H](OC(=O)[C@H](O)[C@@H](NC(=O)OC(C)(C)C)c4ccccc4)C[C@@](O)([C@@H](OC(=O)c4ccccc4)[C@H]21)C3(C)C [anhydrous form of docetaxel, docetaxel] | more stable in acetonitrile than in acetonitrile/water (9/1) | – | – | –
2 | – | – | less stable in co-water solvent | CC(=O)O[C@@]12CO[C@@H]1C[C@H](O)[C@@]1(C)C(=O)[C@H](O)C3=C(C)[C@@H](OC(=O)[C@H](O)[C@@H](NC(=O)OC(C)(C)C)c4ccccc4)C[C@@](O)([C@@H](OC(=O)c4ccccc4)[C@H]21)C3(C)C [docetaxel] | – | can be suppressed by the addition of acetic acid | more stable in non-water solvent than co-water solvent | generated more rapidly in co-water solvent than in non-water solvent
